Legend:
U937 macrophages = test: TNFα in U937 macrophages stimulated with smooth LPS, with SP-A and PtdGro; assay type: cell-based; conditions: 100 ng/ml smooth LPS, 6 hours, SP-A 10 μg/ml, lipid 20 μg/ml
Description: U937 macrophages were stimulated with 100 ng/ml smooth LPS for 6 hours. The culture medium was harvested and assayed for the presence of TNFα by ELISA. Control cultures received no additions. SP-A was added as indicated at 10 μg/ml. Saturated-(16:0/16:0)-PtdGro was added at 20 μg/ml. Unsaturated-(18:1/18:1)-PtdGro was added at 20 μg/ml.

TLR8 = test: TLR agonist IL-8 production in primary human neutrophils, TLR8; assay type: cell-based; conditions: polyU, 5-24 h
Description: (§1) In this experiment, multiple TLRs were stimulated with defined TLR agonists for 5-24 h as indicated, and the IL-8 production was measured. In each case the maximal stimulation by agonist is set at 100% and the antagonism by POPG is expressed as the relative % response. The Controls consist of no treatment, or treatment with POPG, in the absence of agonist as indicated. The agonists for the TLRs consist of Pam3Cys for TLR1/2, double stranded RNA (poly IC) for TLR3, Gram-negative lipopolysaccharide (LPS) for TLR4, and single stranded RNA (polyU) for TLR7/8.

[1] = tested on: Respiratory Syncytial Virus (RSV); test: Cytopathic effects of RSV upon BEAS2B cells (photomicrography); assay type: cell-based
Description: Monolayers of BEAS2B cells were infected with RSV at a multiplicity of 3 for 72 h. Infections were performed on cells in either the absence or the presence of POPG (200 ug/ml). The cell monolayers were photographed at a magnification of 200×. Controls consisted of no viral challenge in either the presence or absence of POPG as indicated.
Monolayers of BEAS2B cells were infected with RSV at a multiplicity of 3 for 72 h. Infections were performed on cells in either the absence (b) or the presence (c,f) of POPG (200 ug/ml) and POPC (200 ug/ml) as indicated. Cells were photographed at a magnification of 200×. Controls (a,d,e) consisted of cell layers either not exposed to virus or exposed to POPG, and POPC in the absence of virus as indicated.
Monolayers of BEAS2B cells were infected with RSV at a multiplicity of 0.5-1, in either the presence or absence of 200 ug/ml POPG, or 200 ug/ml POPC, as indicated.
Monolayers of BEAS2B cells were either uninfected (CONL) or challenged with RSV at a multiplicity of 0.5/cell (RSV). Where indicated in the FIG. 44, RSV challenged cells were also treated with POPC (200 ug/ml) or POPG (200 ug/ml) liposomes; or POPG nanodiscs (nanoPOPG) at concentrations ranging from 100-300 ug/ml. Selected panels and fields are also shown at 400× magnification in FIG. 45.
Where indicated in FIG. 46, RSV challenged cells were also treated with nanodisc forms of dipalmitoyl-phosphatidylcholine (nanoDPPC), palmitoyl-oleoyl-phosphatidylcholine (nanoPOPC), or dioleoyl-phosphatidylcholine (nanoDOPC), dipalmitoyl-phosphatidylglycerol (nanoDPPG), dimyristoyl-phosphatidylglycerol (nanoDMPG), or dioleoyl-phosphatidylglycerol (nanoDOPG). At 72 h after infection, the cultures were examined by photomicrography at a magnification of 200×.

multiple TLRs = test: Activation of primary bronchial epithelial cells by multiple TLRs (IL-8, Example 9); assay type: cell-based, human; conditions: 200 ug/ml POPG, 24 h
Description: Monolayers of normal human bronchial epithelial cells were stimulated with the TLR3 agonist, polyI:C (0.1 ug/ml); the TLR5 agonist, flagellin (10 ng/ml) and the TLR7/8 agonist polyU (100 ug/ml) for 24 h in either the absence or presence of 200 ug/ml POPG, or POPC as indicated. Cultures were also treated with POPG or POPC alone, as additional controls. After 24 h the medium was harvested and centrifuged to remove non-adherent cells, and processed to detect IL-8 production by ELISA. Values shown in FIG. 33 are averages±SE for 3 independent experiments.

[2] = tested on: TNF-α stimulated macrophages; test: IkBα degradation in TNF-α stimulated macrophages; assay type: cell-based; conditions: TNF-α 10 ng/ml
Description: Protein synthesis was measured by determining [^3H]-Leucine incorporation into trichloroacetic acid precipitable material in the presence and absence of 200 μg/ml POPG. No changes in protein synthesis occurred over a 6 hr period in POPG treated U937 cells compared to untreated cells in 3 independent experiments. […] In these studies, macrophages were treated with TNF-α (10 ng/ml) and the degradation of IkBα was measured. […] Collectively, these studies indicate that the actions of the anionic lipids upon LPS signaling are specific.

sTLR4 = sTLR4 (Homo sapiens, UniProt O00206); test: sTLR4 binding to solid phase POPG; conditions: sTLR4 1 μg/ml
Description: (A) POPG (1.25 nmole) was placed onto microtiter wells and the solvent evaporated. After blocking nonspecific binding with buffer A, MD-2, sTLR4 and PstB2 (1 μg/ml) in buffer A were added and incubated at 37° C. for 1 h. The binding of recombinant proteins to POPG was detected using anti-His antibody. […] The data shown are the means±S.E. from three separate experiments each with duplicate determinations.

TLR1 = molecular target: T1, TLR1 (Homo sapiens, UniProt Q15399); test: TLR agonist IL-8 production in primary human neutrophils, TLR1; assay type: cell-based; design: endogenous in cells; host or cells: primary human neutrophils; conditions: Pam3Cys, 5-24 h
T1 sequence (Q15399 25-786): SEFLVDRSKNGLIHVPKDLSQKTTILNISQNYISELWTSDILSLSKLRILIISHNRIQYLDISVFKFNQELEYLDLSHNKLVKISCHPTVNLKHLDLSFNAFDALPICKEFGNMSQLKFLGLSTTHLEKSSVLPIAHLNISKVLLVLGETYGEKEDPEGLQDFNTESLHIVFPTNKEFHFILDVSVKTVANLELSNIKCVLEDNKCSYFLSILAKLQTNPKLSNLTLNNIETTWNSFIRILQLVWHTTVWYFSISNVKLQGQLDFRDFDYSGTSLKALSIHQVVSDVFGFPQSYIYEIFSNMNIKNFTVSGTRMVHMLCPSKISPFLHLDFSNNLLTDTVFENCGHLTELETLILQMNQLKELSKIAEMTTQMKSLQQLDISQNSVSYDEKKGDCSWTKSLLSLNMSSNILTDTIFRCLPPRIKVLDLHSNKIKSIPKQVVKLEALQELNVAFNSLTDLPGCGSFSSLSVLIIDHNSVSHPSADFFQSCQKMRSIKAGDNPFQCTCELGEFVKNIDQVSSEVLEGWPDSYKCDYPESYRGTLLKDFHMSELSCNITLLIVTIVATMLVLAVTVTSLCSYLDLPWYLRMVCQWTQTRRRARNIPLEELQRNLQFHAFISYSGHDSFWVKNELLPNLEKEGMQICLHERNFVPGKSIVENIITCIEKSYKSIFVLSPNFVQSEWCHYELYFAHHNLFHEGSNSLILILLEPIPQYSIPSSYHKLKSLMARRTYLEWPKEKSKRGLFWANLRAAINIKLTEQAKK
Description: as §1

sTLR4, sequence (O00206 24-631): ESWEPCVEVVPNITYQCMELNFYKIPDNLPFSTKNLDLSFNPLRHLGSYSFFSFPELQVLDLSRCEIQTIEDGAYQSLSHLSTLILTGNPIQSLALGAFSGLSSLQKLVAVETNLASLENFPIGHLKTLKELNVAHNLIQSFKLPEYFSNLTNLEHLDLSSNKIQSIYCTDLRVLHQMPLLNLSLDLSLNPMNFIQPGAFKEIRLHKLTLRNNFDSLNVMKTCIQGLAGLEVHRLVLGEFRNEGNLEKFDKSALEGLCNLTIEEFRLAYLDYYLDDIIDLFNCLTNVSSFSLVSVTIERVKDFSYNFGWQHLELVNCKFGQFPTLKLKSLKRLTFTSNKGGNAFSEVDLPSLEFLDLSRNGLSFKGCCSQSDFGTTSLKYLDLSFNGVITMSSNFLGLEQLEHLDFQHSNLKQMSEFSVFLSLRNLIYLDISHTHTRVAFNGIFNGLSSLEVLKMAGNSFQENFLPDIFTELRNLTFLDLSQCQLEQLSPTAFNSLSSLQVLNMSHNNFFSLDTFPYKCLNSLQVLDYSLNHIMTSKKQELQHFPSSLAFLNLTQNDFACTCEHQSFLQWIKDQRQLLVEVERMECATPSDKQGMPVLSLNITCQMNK

SMILES | blocking of the anti-inflammatory effects of SP-A (TNFα) (U937 macrophages) | activity of TLR8 (IL-8 production) (TLR8) | killing of cells by RSV ([1]; multiplicity 0.5-1, 72 h, 200 ug/ml) | cytopathic effects of RSV ([1]; multiplicity 3, 72 h, lipid 200 ug/ml) | activation of primary bronchial epithelial cells by multiple TLRs (IL-8) (multiple TLRs) | IkBα degradation after TNF-α stimulation [2] | binding to sTLR4 (sTLR4) | activity of TLR1 (IL-8 production) (TLR1)
CCCCCCCCCCCCCCCC(=O)OCC(COP(=O)(O)OCC(O)CO)OC(=O)CCCCCCCCCCCCCCC (centres unmarked) [DPPG, dipalmitoyl-phosphatidylglycerol, reference compound] | does not block | – | – | – | – | – | – | –
CCCCCCCC/C=C\CCCCCCCC(=O)O[C@H](COC(=O)CCCCCCCCCCCCCCC)COP(=O)(O)OCC(O)CO (some centres unmarked) [POPG, palmitoyl-oleoyl-phosphatidylglycerol] | – | inhibits | prevents the killing | prevents the cytopathic effects | inhibits activation | failed to alter | not | inhibits
